# Data published in US6929927B2, “Method of evaluating antifungal agent” (Pola Chemical Industries Inc., priority 2000, dated 2005).
# Test system: Trichophyton mentagropytes TIMM 2789
# Experiment: MIC by microdilution method in 96-well plates, inactivation of agents by lecithin and Tween 80
# Assay type: cell-based
# Details: TIMM2789, 168 h, 7 days
# Description: MIC (minimum inhibitory concentration) was measured by means of the microdilution method by using 96-well plates to investigate the inactivation of respective agents caused by lecithin and Tween 80. The following four media were used. That is, a Sabouraud liquid medium (SDB) as a base medium, a medium obtained by adding 0.7% Tween 80 to SDB, a medium obtained by adding 1% lecithin to SDB, and a medium obtained by adding 0.7% Tween 80 and 1% lecithin to SDB were used. The following agents were used. That is, lanoconazole, bifonazole, and terbinafine were used. The following test strain was used. That is, Trichophyton mentagropytes TIMM 2789 (available from Institute of Medical Mycology of Teikyo University), which is generally used for the animal infection experiment, was used. The cultivation was performed at 28° C. for 7 days, while the microbial concentration upon the inoculation was about 10^4 conidia/ml. After the cultivation, it was regarded that MIC (μg/ml) was represented by the minimum agent concentration of the plate on which no microbial growth was observed by visual observation.
# [1] = Sabouraud liquid medium (SDB), additive none, 28° C.
"MIC (SDB with 0.7% Tween 80, 28° C.) [µg/mL]","MIC (SDB with 1% lecithin, 28° C.) [µg/mL]",MIC [1] [µg/mL],Compound
> 25,> 25,1.56,"c1ccc(-c2ccc(C(c3ccccc3)n3ccnc3)cc2)cc1 (stereo not drawn) [Bifonazole, bifonazole]"
0.312,0.078,≤ 0.005,"N#C/C(=C1/SCC(c2ccccc2Cl)S1)n1ccnc1 (stereo not drawn) [Lanoconazole, lanoconazole]"
0.312,0.078,≤ 0.005,"CN(C/C=C/C#CC(C)(C)C)Cc1cccc2ccccc12 [Terbinafine, terbinafine]"
